Like-named read-outs stand apart in the source and are kept apart here.
What was measured:
hP2X3 = biological target: T1, hP2X3 (Homo sapiens, UniProt P56373); experiment: Calcium uptake assay (P2X antagonist assay), P2X3 homomer; type: cell-based; conditions: hP2X3
T1 construct: expressed in transfected cells; host or cells: e.g. HEK293 or 1321N1
T1 sequence (P56373 1-397): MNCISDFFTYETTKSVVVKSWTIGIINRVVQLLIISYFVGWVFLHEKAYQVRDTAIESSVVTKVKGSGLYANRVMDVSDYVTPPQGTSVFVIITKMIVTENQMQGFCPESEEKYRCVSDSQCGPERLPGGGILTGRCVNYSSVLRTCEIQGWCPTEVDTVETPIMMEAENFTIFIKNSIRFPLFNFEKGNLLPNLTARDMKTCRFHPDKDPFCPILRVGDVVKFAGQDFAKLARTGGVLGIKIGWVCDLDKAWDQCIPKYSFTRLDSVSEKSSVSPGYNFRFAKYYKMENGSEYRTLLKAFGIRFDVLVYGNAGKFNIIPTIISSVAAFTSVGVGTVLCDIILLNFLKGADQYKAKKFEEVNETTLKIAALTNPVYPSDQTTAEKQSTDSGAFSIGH
Method in brief: (§1)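 Stably or transiently transfected HEK293 or 1321N1 cells; the heteromer is made by adding P2X3 to a P2X2-stable line, with heteromer function isolated pharmacologically. The peak-minus-baseline FLIPR calcium signal gives % inhibition and a 4-parameter-logistic IC50.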

hP2X2/3H = biological target: T2, hP2X2/3H (Homo sapiens, UniProt P56373+Q9UBL9); experiment: Calcium uptake assay (P2X antagonist assay), P2X2/3 heteromer; type: cell-based; conditions: hP2X2/3H
T2 construct: expressed in transfected cells; host or cells: e.g. HEK293 or 1321N1
T2 sequence (Q9UBL9 1-471): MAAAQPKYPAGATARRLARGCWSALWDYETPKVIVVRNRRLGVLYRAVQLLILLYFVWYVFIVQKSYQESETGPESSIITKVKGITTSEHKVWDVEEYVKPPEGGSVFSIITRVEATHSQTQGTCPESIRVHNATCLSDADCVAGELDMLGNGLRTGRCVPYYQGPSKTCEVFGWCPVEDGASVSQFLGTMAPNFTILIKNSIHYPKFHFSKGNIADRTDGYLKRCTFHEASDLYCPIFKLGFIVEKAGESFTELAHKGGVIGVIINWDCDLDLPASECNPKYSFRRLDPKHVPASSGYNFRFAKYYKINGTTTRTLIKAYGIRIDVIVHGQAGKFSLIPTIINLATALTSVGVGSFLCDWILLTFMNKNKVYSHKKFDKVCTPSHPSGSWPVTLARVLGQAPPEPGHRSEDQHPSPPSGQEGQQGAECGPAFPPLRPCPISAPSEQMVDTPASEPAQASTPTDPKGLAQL
T2 sequence (P56373 1-397): T1 sequence (P56373 1-397)
Method in brief: as §1

[1] = calcium uptake assay, read-out: IC50 hP2X3 (nM), Ca Influx
[2] = calcium uptake assay, read-out: IC50 hP2X2/3H (nM), Ca Influx
[3] = Ca influx (calcium uptake assay), read-out: IC50 hP2X3
[4] = Ca influx (calcium uptake assay), read-out: IC50 hP2X2/3H

| Compound | IC50 (hP2X3; [1]) | IC50 (hP2X2/3H; [2]) | IC50 (hP2X3; [3]) | IC50 (hP2X2/3H; [4]) |
| --- | --- | --- | --- | --- |
| Cc1ccc(-c2cc(C(=O)NCc3cnc(C)nc3)cc(C(=O)N3CCN(C)C(=O)C3)c2)cc1 [Compound 27] | < 100 nM | 501 to 1000 nM | – | – |
| Cc1ccc(-c2cc(C(=O)N[C@H](C)c3ccc(C)nc3)cc(C(O)c3ccccn3)c2)c(C#N)c1 (stereo partly drawn) [Compound 284] | – | – | < 100 nM | < 100 nM |
| Cc1ccc(-c2cc(C(=O)NCc3ccc(C)nc3)cc(C(=O)N3CCC(N4CCOCC4)C3)c2)cc1 (stereo not drawn) [Compound 86, 4′-Methyl-N-((6-methylpyridin-3-yl)methyl)-5-(3-morpholinopyrrolidine-1-carbonyl)biphenyl-3-carboxamide] | 100 to 500 nM | 100 to 500 nM | – | – |
| Cc1ccc(-c2cc(Oc3ncccn3)cc(C(=O)N[C@H](C)c3ccc(C)nc3)c2)nc1 [Compound 272] | – | – | < 100 nM | 100 to 500 nM |
| Cc1ccc(-c2cc(C(=O)NCc3cnc(C)nc3)cc(C(=O)N3CCCC3)c2)nc1 [Compound 28, 3-(5-Methylpyridin-2-yl)-N-((2-methylpyrimidin-5-yl)methyl)-5-(pyrrolidine-1-carbonyl)benzamide] | < 100 nM | 100 to 500 nM | – | – |
| Cc1ccc(-c2cc(C(=O)NCc3ccc(C)nc3)cc(C(=O)N3CC(O)C3)c2)cc1 [Compound 132] | < 100 nM | < 100 nM | – | – |
| Cc1ccc(-c2cc(C(=O)N[C@H](C)c3cnc(C)nc3)cc(S(C)(=O)=O)c2)cc1 [Compound 116, (R)-4′-Methyl-N-(1-(2-methylpyrimidin-5-yl)ethyl)-5-(methylsulfonyl)biphenyl-3-carboxamide] | < 100 nM | < 100 nM | – | – |
| Cc1ccc(CNC(=O)c2cc(-c3ccc(Cl)c(C)c3)cc(S(C)(=O)=O)c2)cn1 [Compound 119] | > 1000 nM | > 1000 nM | – | – |
| Cc1ccc(-c2cc(C(=O)N[C@H](CCO)c3ccc(C(F)(F)F)nc3)cc(S(C)(=O)=O)c2)cc1 [Compound 223] | – | – | < 100 nM | 100 to 500 nM |

From patent US8946439B2, “Amide compounds, compositions and uses thereof” (Evotec AG, priority 2008, dated 2015)
